Experimental data from PMC12564302, “Discovery of N-Hydroxypyridinedione-Based Inhibitors of HBV RNase H: Design, Synthesis, and Extended SAR Studies” (International Journal of Molecular Sciences, 2025).
Like-named read-outs stand apart in the source and are kept apart here.

Legend:
[1] = system: HBV replication in HepDES19 cells; settings: cited from earlier work
[2] = system: HepDES19 cells; settings: cited from earlier work
[3] = MTS cytotoxicity assay; type: cell-based; settings: human, HepDES19 cells, pH 7.4
Protocol: (§1) HepDES19 cells are a HepG2 cell-line derivative that has been stably transfected with an HBV genotype D genome containing a tetracycline repressible promoter. HepDES19 cells were maintained on collagen-coated plates in Dulbecco’s modified Eagle’s medium (DMEM/F12) (Cytiva Life Sciences, Marlborough, MA, USA) supplemented with 10% fetal bovine serum (FBS), streptomycin (100 µg/mL), and penicillin (100 IU/mL), and incubated at 37 °C with 5% CO2 and saturating humidity. Cells were cultured with 1 µg/mL tetracycline to inhibit the expression of the stably integrated HBV genome, and HBV replication was activated upon removal of tetracycline from the culture medium.
Cell viability was assessed using the CellTiter 96^TM Aqueous Non-Radioactive Cell Proliferation assay (MTS) (Promega, Madison, WI, USA) as described previously. HepDES19 cells were seeded in 96 well plates at 1 × 10^4 cells/well for 48 h. Cells were then incubated with serial diluted compound, with a final concentration of 1% DMSO, for 72 h. Following compound incubation, background absorbance values were subtracted, and the data were converted into percent cell viability. The cytotoxic concentration 50% (CC50) values were calculated using GraphPad Prism’s four-parameter log (inhibitor) versus response algorithm, with the bottom value set to zero. Three or more replicate assays were performed on different days.

[4] = system: HBV replication in HepDES19 cells; assay: qPCR HBV replication inhibition assay; type: cell-based, HBV genotype D; settings: 72 h, (+) polarity DNA strand, pH 7.4, read-out: EC50
Protocol: as §1
HBV replication inhibition in HepDES19 cells was assessed using a strand-preferential quantitative PCR assay as previously described. HepDES19 cells were seeded in 96 well plates at 4 × 10^4 cells/well for 48 h followed by the addition of serial diluted compound with a final concentration of 1% DMSO for 72 h, after which cells were lysed, and qPCR was performed as described in Li et al.. Effective concentration 50% (EC50) values were calculated from data for the (+) polarity DNA strand data using GraphPad Prism version 10’s four-parameter log (inhibitor) versus response algorithm, with the bottom value set to zero. Three or more replicate assays were performed on different days.

[5] = Solubility limit assay; type: physicochemical; settings: DMEM-F12 without phenol red with 10% FBS, pH 7.4, plasma or biological fluid, kinetic from dmso stock
Protocol: Solubility limits of compounds were tested as previously reported in DMEM-F12 without phenol red (Gibco, Grand Island, NY, USA) but with the media supplemented with 10% FBS (pH 7.4) to mimic cell culture experiments. In a 384-well optically clear plate, compounds were serially diluted in pH 7.4 buffer (upper limit 200 µM, DMSO 1%) then read at 620 nm. Solubility limits were determined by plotting compound concentration (µM) against optical density (OD) and identifying an inflexion point. The inflexion point is defined by a substantial increase in OD brought on by increasing turbidity, and the compound concentration at this point is known as the solubility limit. Each compound had at least two replicate assays performed on different days.

[6] = Parallel artificial membrane permeability assay; type: in vitro ADME; settings: PAMPA, pH 7.4, PAMPA
Protocol: The evaluation of apparent passive permeability (Papp) at pH 7.4 was performed using a donor/acceptor cassette (Innovative Laboratory Products, Phoenix, AZ, USA and Sigma Aldrich, Burlington, MA, USA), which simulates the apical and basolateral sides of the small intestine epithelium, as previously described. An artificial membrane made of 1% w/v lecithin/dodecane was applied to the poly (vinylidene fluoride) (PVDF) membrane filter and allowed to dry. Following drying, compounds (200 µM) were diluted in buffer at pH 7.4 and added to the donor side of the cassette. The same pH buffer was added on the acceptor side of the cassette, after which it was assembled and incubated at room temperature with shaking at 250 rpm for 2 h, before reading the absorbance of 100 µL from the acceptor well on a plate reader between 230 and 700 nm. The Papp (cm/s) values for compounds were determined by normalizing to the compound absorbance at equilibrium using the peak absorbance point for each compound, buffer volume, incubation time, and membrane porosity. Two or more replicate assays were conducted on different days.

[7] = system: HBV RNase H carrying the P790L mutation; assay: Recombinant RNase H biochemical assay (FAM/IowaBlack RNA:DNA heteroduplex); settings: qualitative assay
Protocol: HBV RNase H carrying the P790L mutation that is needed to stabilize the recombinant enzyme was purified from E. coli, and RNase H assays in which an RNA:DNA heteroduplex was incubated with the recombinant enzyme were performed. The RNA strand is FAM-labelled, and the DNA strand carries an IowaBlack quencher. Cleavage of the RNA strand releases the FAM moiety from quenching, causing an increase in fluorescence. Performance limitations with the enzyme limit this assay to just qualitative interpretation.

[8] = Figure 1, earlier HBV RNase H inhibitors
[9] = Hepatitis B virus, HepDES19, 72 h, pH 7.4, HepDES19 cells
[10] = pH 7.4, DMEM-F12 with 10% FBS, 1% DMSO, upper limit 200 µM, read-out: Solubility Limit
[11] = pH 7.4, read-out: Solubility Limit Interpretation
[12] = pH 7.4, 200 µM, 2 h, read-out: Papp
[13] = pH 7.4, read-out: Papp Interpretation
[14] = pH 7.4, previously published compounds
[15] = pH 7.4, previously published compound
[16] = pH 7.4, previously published compound, Table 1

Structure (SMILES) | CC50 at 72 h [3] [µM] | EC50 [4, 9] [µM] | solubility [5, 10] [µM] | solubility [5, 11] [µM] | Papp at 2 h, 200 µM [6, 12] [×10⁻⁶ cm/s] | Papp at 2 h, 200 µM [6, 13] [×10⁻⁶ cm/s] | EC50 [1, 14] [µM] | CC50 [2, 14] [µM] | also measured
COc1ccc(CON=C(C)c2c(C)cc(=O)n(O)c2O)cc1 [A24] |  |  |  |  |  |  |  |  | EC50 [1, 8]: 0.29 µM; CC50 [2, 8]: 102 µM
CC(=Nc1ccc(F)c(F)c1)c1c(C)cc(=O)n(O)c1O [Compound 22, 5-(1-((3,4-difluorophenyl)imino)ethyl)-1,6-dihydroxy-4-methylpyridin-2(1H)-one] | 100 | 0.9 | > 200 | > 100 | 2.99 | > 1 |  |  | EC50 ([4]; HepDES19 cells): 0.89 ± 0.4 µM; suppression of RNase H activity ([7]; at 100 µM): ~ 50%; suppression of RNase H activity (in words) [7]: dose-dependent suppression of RNase H activity
CC(=NCc1cccc(F)c1)c1c(C)cc(=O)n(O)c1O [Compound 39, 5-(1-((3-fluorobenzyl)imino)ethyl)-1,6-dihydroxy-4-methylpyridin-2(1H)-one] | 19.3 ± 10.5 | 27.6 ± 3.7 | > 200 | > 100 | 1.89 | > 1 |  |  | 
CC(=NCc1ccc(F)cc1)c1c(C)cc(=O)n(O)c1O [Compound 40, 5-(1-((4-fluorobenzyl)imino)ethyl)-1,6-dihydroxy-4-methylpyridin-2(1H)-one] | 15.4 ± 7.4 | 16.5 ± 3.5 | > 200 | > 100 | 1.1 | > 1 |  |  | 
CC(=NCc1ccc(F)c(F)c1)c1c(C)cc(=O)n(O)c1O [Compound 41, 5-(1-((3,4-difluorobenzyl)imino)ethyl)-1,6-dihydroxy-4-methylpyridin-2(1H)-one] | 23.9 ± 11.7 | 10.7 ± 0.5 | > 200 | > 100 | 2.54 | > 1 |  |  | 
CC(=NCc1cc(F)cc(F)c1)c1c(C)cc(=O)n(O)c1O [Compound 42, 5-(1-((3,5-difluorobenzyl)imino)ethyl)-1,6-dihydroxy-4-methylpyridin-2(1H)-one] | 82.9 ± 24.6 | 73.7 ± 26.3 | > 200 | > 100 | 1.53 | > 1 |  |  | 
CC(=NCCOc1ccc(Cl)cc1)c1c(C)cc(=O)n(O)c1O [Compound 43, 5-(1-((2-(4-chlorophenoxy)ethyl)imino)ethyl)-1,6-dihydroxy-4-methylpyridin-2(1H)-one] | 30.1 ± 12.5 | 17.2 ± 6.6 | > 200 | > 100 | 0.86 | < 1 |  |  | 
C/C(=N\OCc1ccccc1Br)c1c(C)cc(=O)n(O)c1O [Compound 46] |  |  |  |  |  |  | 2 ± 1.6 | 80.8 ± 27.5 | 
C/C(=N\OCc1cccc(Br)c1)c1c(C)cc(=O)n(O)c1O [Compound 47] |  |  |  |  |  |  | 0.52 ± 0.33 | 78.5 ± 32.4 | 
C/C(=N\OCc1ccc(Br)cc1)c1c(C)cc(=O)n(O)c1O [Compound 48] |  |  |  |  |  |  | 1.13 ± 0.19 | 76.7 ± 30.3 | 
C/C(=N\OCc1ccccc1Cl)c1c(C)cc(=O)n(O)c1O [Compound 49] |  |  |  |  |  |  | 0.24 ± 0.09 |  | 
C/C(=N\OCc1cccc(Cl)c1)c1c(C)cc(=O)n(O)c1O [Compound 50] |  |  |  |  |  |  | 1.35 ± 1.03 | 56.9 ± 31.1 | 
C/C(=N\OCc1ccc(Cl)cc1)c1c(C)cc(=O)n(O)c1O [Compound 51] |  |  |  |  |  |  | 0.36 ± 0.24 | 46.6 ± 13.6 | 
C/C(=N\OCc1ccccc1F)c1c(C)cc(=O)n(O)c1O [Compound 52] |  |  |  |  |  |  |  |  | EC50 [1, 15]: 0.32 ± 0.2 µM; CC50 [2, 15]: 90 ± 6 µM
C/C(=N\OCc1cccc(F)c1)c1c(C)cc(=O)n(O)c1O [Compound 53] |  |  |  |  |  |  | 0.06 ± 0.01 | 73.9 ± 28.6 | 
C/C(=N\c1ccccc1N)c1c(C)cc(=O)n(O)c1O [Compound 54] |  |  |  |  |  |  |  |  | EC50 [1, 16]: 0.69 ± 0.2 µM; CC50 [2, 16]: 15 ± 7 µM
